The results in this text go back to PMC6792352, “Limited Chemical Structural Diversity Found to Modulate Thyroid Hormone Receptor in the Tox21 Chemical Library” (Environmental Health Perspectives, 2019).

Structures can show the parent of a compound that is named as a salt.

A word on the CC50: it is the concentration that lowers cell viability or growth by half.

The nature of the first series: in vitro. The note with it: rat, gh3-tre-luc cells, AC50 (uM) modified / 1000.
In turn, `O=NN1CCCCCC1` [N-Nitrosohexamethyleneimine] came in with a half-maximal cytotoxic concentration (CC50) at 24 h greater than 90 µM.
Turning to `O=NN1CCNCC1` [N-Nitrosopiperazine], the half-maximal cytotoxic concentration (CC50) at 24 h is greater than 100 µM.
Regarding `c1ccc2sc(SN3CCOCC3)nc2c1` [N-Oxydiethylenebenzothiazole-2-sulfenamide], the 50% cytotoxic concentration (CC50) at 24 h was greater than 50 µM.
The same measure, in the same setting: in the case of `OCCN(CCO)c1ccccc1` [N-Phenyldiethanolamine] it was greater than 90 µM; in that of `ONc1ccccc1` [N-Phenylhydroxylamine], greater than 100 µM.
Regarding `C=CN1CCCC1=O` [N-Vinyl-2-pyrrolidone], the CC50 at 24 h is greater than 90 µM.
`CCCCCCCCCCCC(=O)NCCCN(C)C` [N-[3-(Dimethylamino)propyl]dodecanamide] registered a 50% cytotoxic concentration (CC50) at 24 h of 18 µM.
For the compound `C=C(C)C(=O)NCCCN(C)C` [N-[3-(Dimethylamino)propyl]methacrylamide], the CC50 at 24 h was greater than 90 µM.
For the compound `CO[Si](CCCNc1ccccc1)(OC)OC` [N-[3-(Trimethoxysilyl)propyl]aniline], the cytotoxic concentration (CC50) at 24 h is greater than 90 µM.
`CO[Si](CCCNCCN)(OC)OC` [N-[3-(Trimethoxysilyl)propyl]ethane-1,2-diamine] registered a 50% cytotoxic concentration (CC50) at 24 h greater than 90 µM.
Consider `O=C(N[C@@H]1N=C(c2ccccc2F)c2cccc3c2N(CC3)C1=O)c1cc2ccccc2[nH]1` [N-[(3R)-1-(2-Fluorophenyl)-4-oxo-3,4,6,7-tetrahydro[1,4]diazepino[6,7,1-hi]indol-3-yl]-1H-indole-2-carboxamide], for which the CC50 at 24 h is greater than 50 µM.
Compound `O=C(O)C[C@H](NC(=O)OCc1ccccc1)C(=O)O` [N-[(Benzyloxy)carbonyl]-L-aspartic acid] yielded a CC50 at 24 h greater than 90 µM.
As for `Cc1ccc(S(=O)(=O)N[C@@H](CCCCN)C(=O)CCl)cc1` [N-alpha-p-Tosyl-L-lysine chloromethyl ketone hydrochloride], the cytotoxic concentration (CC50) at 24 h was found to be 15 µM. This counts as double-digit micromolar.
For the compound `CNC(=O)C(c1ccccc1)c1ccccc1` [N-methyl-alpha-phenylbenzeneacetamide], the CC50 at 24 h was greater than 90 µM.
In the case of `CC(C)(C)NSc1nc2ccccc2s1` [N-tert-Butyl-2-benzothiazolesulfenamide], the CC50 at 24 h is greater than 90 µM.
Compound `S=C(S)NCCNC(=S)S` [Nabam-sodium] displayed a CC50 at 24 h greater than 90 µM.
Turning to `COc1ccc2cc(CCC(C)=O)ccc2c1` [Nabumetone], the CC50 at 24 h is greater than 20 µM.
Consider `NC(=O)c1ccc[n+]([C@@H]2O[C@H](COP(=O)([O-])OP(=O)(O)OC[C@H]3O[C@@H](n4cnc5c(N)ncnc54)[C@H](O)[C@@H]3O)[C@@H](O)[C@H]2O)c1` [Nadide], for which the CC50 at 24 h is greater than 20 µM.
In the case of `CC1CCc2c(N3CCC(O)CC3)c(F)cc3c(=O)c(C(=O)O)cn1c23` (centres unmarked) [Nadifloxacin], the 50% cytotoxic concentration (CC50) at 24 h was greater than 50 µM.
Same read-out and setting: the result for `N=C(N)c1ccc2cc(OC(=O)c3ccc(N=C(N)N)cc3)ccc2c1` [Nafamostat mesylate] reads greater than 50 µM; that for `CCOc1ccc2ccccc2c1C(=O)N[C@@H]1C(=O)N2[C@@H]1SC(C)(C)[C@@H]2C(=O)O` [Nafcillin sodium monohydrate], greater than 20 µM.
Compound `CC(C)(Oc1ccc(C2CCCc3ccccc32)cc1)C(=O)O` (centres unmarked) [Nafenopin] came in with a CC50 at 24 h greater than 50 µM.
In the case of `CCN(CC)CCOC(=O)[C@H](Cc1cccc2ccccc12)C[C@H]1CCCO1` [Nafronyl oxalate], the CC50 at 24 h was greater than 20 µM.
Regarding `CN(C/C=C/c1ccccc1)Cc1cccc2ccccc12` [Naftifine hydrochloride], the CC50 at 24 h was determined as 25 µM.
`COc1ccccc1N1CCN(CC(O)COc2cccc3ccccc23)CC1` (centres unmarked) [Naftopidil] displayed a 50% cytotoxic concentration (CC50) at 24 h of 23.4 µM.
On to `Oc1ccc2c3c1O[C@H]1[C@@H](O)CC[C@@]4(O)[C@@H](C2)N(CC2CCC2)CC[C@]314` [Nalbuphine], for which the cytotoxic concentration (CC50) at 24 h is greater than 50 µM.
Still for that read-out and setting: in the case of `CCn1cc(C(=O)O)c(=O)c2ccc(C)nc21` [Nalidixic acid] it was greater than 90 µM; in that of `C=C1CC[C@@]2(O)[C@H]3Cc4ccc(O)c5c4[C@@]2(CCN3CC2CC2)[C@H]1O5` [Nalmefene], greater than 50 µM.
On to `C=CCN1CC[C@]23c4c5ccc(O)c4O[C@H]2C(=O)CC[C@@]3(O)[C@H]1C5` [Naloxone], for which the CC50 at 24 h was greater than 50 µM.
`CC(=O)N[C@@H](CCC(N)=O)C(=O)O` [Nalpha-Acetyl-L-glutamine] returned a cytotoxic concentration (CC50) at 24 h greater than 50 µM.
The same measure, in the same setting: the result for `O=C1CC[C@@]2(O)[C@H]3Cc4ccc(O)c5c4[C@@]2(CCN3CC2CC2)[C@H]1O5` [Naltrexone] reads greater than 50 µM; that for `CCCCCCCCCC(=O)O[C@H]1CC[C@H]2[C@@H]3CCC4=CC(=O)CC[C@@H]4[C@H]3CC[C@]12C` [Nandrolone decanoate], greater than 50 µM.
Still for that read-out and setting: the result for `C[C@]12CC[C@H]3[C@@H](CCC4=CC(=O)CC[C@@H]43)[C@@H]1CC[C@@H]2OC(=O)CCc1ccccc1` [Nandrolone phenpropionate] reads greater than 50 µM; that for `C[C@]12CC[C@H]3[C@@H](CCC4=CC(=O)CC[C@@H]43)[C@@H]1CC[C@@H]2O` [Nandrolone], greater than 90 µM; that for `c1ccc2c(CC3=NCCN3)cccc2c1` [Naphazoline hydrochloride], greater than 50 µM.
`c1ccc2ccccc2c1` [Naphthalene] had a 50% cytotoxic concentration (CC50) at 24 h greater than 90 µM.
On the same count and under the same terms, the result for `CCN(CC)C(=O)C(C)Oc1cccc2ccccc12` (centres unmarked) [Napropamide] reads greater than 90 µM; that for `COc1ccc2cc([C@H](C)CO)ccc2c1` [Naproxol], greater than 50 µM.
Same read-out and setting: in the case of `CC[C@@H](C(=O)O)[C@@H]1O[C@@H]([C@@H](C)[C@H](O)[C@H](C)C(=O)[C@H](CC)[C@H]2O[C@]3(C=C[C@@H](O)[C@]4(CC[C@@](C)([C@H]5CC[C@](O)(CC)[C@H](C)O5)O4)O3)[C@H](C)C[C@@H]2C)[C@@H](C)C[C@@H]1C` [Narasin] it was 0.153 µM.
Regarding `CNS(=O)(=O)CCc1ccc2[nH]cc(C3CCN(C)CC3)c2c1` [Naratriptan hydrochloride], the CC50 at 24 h is greater than 50 µM.
Compound `C[C@@H]1C/C=C/C=C/C=C/C=C/[C@H](O[C@@H]2O[C@H](C)[C@@H](O)[C@H](N)[C@@H]2O)C[C@@H]2O[C@](O)(C[C@@H](O)C[C@H]3O[C@@H]3/C=C/C(=O)O1)C[C@H](O)[C@H]2C(=O)O` [Natamycin] yielded a cytotoxic concentration (CC50) at 24 h greater than 50 µM.
For the compound `CC(C)[C@H]1CC[C@H](C(=O)N[C@H](Cc2ccccc2)C(=O)O)CC1` [Nateglinide], the half-maximal cytotoxic concentration (CC50) at 24 h was greater than 50 µM.
On the same count and under the same terms, the result for `CC1(C)CCC(NC(=O)[C@@H](N)CCC(=O)O)CC1` [Neboglamine] reads greater than 50 µM; that for `CCCc1c2oc(C(=O)O)cc(=O)c2cc2c(=O)cc(C(=O)O)n(CC)c12` [Nedocromil], greater than 50 µM.
The same measure, in the same setting: the result for `Cc1cccc(C)c1NC(=O)CN1CCCC1=O` [Nefiracetam] reads greater than 50 µM; that for `CN1CCOC(c2ccccc2)c2ccccc2C1` (centres unmarked) [Nefopam hydrochloride], greater than 20 µM; that for `COc1nc(N)nc2c1ncn2[C@@H]1O[C@H](CO)[C@@H](O)[C@@H]1O` [Nelarabine], greater than 50 µM.
`COc1ccc(S(=O)(=O)N2C(=O)[C@@](c3ccccc3OC)(N3C[C@H](O)C[C@H]3C(=O)N(C)C)c3cc(Cl)ccc32)c(OC)c1` [Nelivaptan]: half-maximal cytotoxicity (CC50 at 24 h) was put at 34.9 µM. This counts as double-digit micromolar.

The same series, now with this note: rat, gh3-tre-luc cells, AC50 (uM) modified / 1000, Tox21_110001=Tox21_112025; viability, 1 nM T3 present, 24 h.
Turning to `C=CC[N+]1(C)CC[C@]23c4c5ccc(O)c4O[C@H]2C(=O)CC[C@@]3(O)[C@H]1C5` (some centres unmarked) [Naloxone methyliodide], the CC50 at 24 h is greater than 50 µM.

Staying with this series, now noted: rat, gh3-tre-luc cells, AC50 (uM) modified / 1000, Tox21_110001=Tox21_112614; viability, 1 nM T3 present, 24 h.
For the compound `C=CCN1CC[C@]23c4c5ccc(O)c4O[C@H]2[C@@H](O)C=C[C@H]3[C@H]1C5` [Nalorphine hydrochloride], the CC50 at 24 h was greater than 50 µM.

Still in this series, the particulars now being: rat, gh3-tre-luc cells, AC50 (uM) modified / 1000, Tox21_110001=Tox21_112824; viability, 1 nM T3 present, 24 h.
The compound `COc1ccc2c3c1O[C@H]1[C@@H](O)C=C[C@H]4[C@@H](C2)NCC[C@@]341` [N-Norcodeine hydrochloride] displayed a CC50 at 24 h greater than 100 µM.

Staying with this series, now noted: rat, gh3-tre-luc cells, AC50 (uM) modified / 1000, Tox21_110001=Tox21_112862; viability, 1 nM T3 present, 24 h.
`Oc1ccc2c3c1O[C@H]1[C@@H](O)C=C[C@H]4[C@@H](C2)NCC[C@@]341` [N-Normorphine hydrochloride]: the CC50 at 24 h is greater than 100 µM.

Still in this series, the particulars now being: rat, gh3-tre-luc cells, AC50 (uM) modified / 1000, Tox21_110001=Tox21_200267; viability, 1 nM T3 present, 24 h.
On to `O=NN1CCCCC1` [N-Nitrosopiperidine], for which the CC50 at 24 h was greater than 90 µM.

Still in this series, the particulars now being: rat, gh3-tre-luc cells, AC50 (uM) modified / 1000, Tox21_110001=Tox21_201641; viability, 1 nM T3 present, 24 h.
On to `COP(=O)(OC)OC(Br)C(Cl)(Cl)Br` (centres unmarked) [Naled], for which the half-maximal cytotoxic concentration (CC50) at 24 h amounted to 48.7 µM.

The series is the same for the next values; noted with them: rat, gh3-tre-luc cells, AC50 (uM) modified / 1000, Tox21_110001=Tox21_201860; viability, 1 nM T3 present, 24 h.
`CCCN(CCC)N=O` [N-Nitrosodipropylamine] yielded a CC50 at 24 h greater than 90 µM.

Still in this series, the particulars now being: rat, gh3-tre-luc cells, AC50 (uM) modified / 1000, Tox21_110001=Tox21_202132; viability, 1 nM T3 present, 24 h.
For `O=NN1CCOCC1` [N-Nitrosomorpholine], the cytotoxic concentration (CC50) at 24 h was greater than 100 µM.

Staying with this series, now noted: rat, gh3-tre-luc cells, AC50 (uM) modified / 1000, Tox21_110001=Tox21_202356; viability, 1 nM T3 present, 24 h.
`O=NN1CCCC1` [N-Nitrosopyrrolidine] came in with a half-maximal cytotoxic concentration (CC50) at 24 h greater than 100 µM.

Staying with this series, now noted: rat, gh3-tre-luc cells, AC50 (uM) modified / 1000, Tox21_110001=Tox21_300845; viability, 1 nM T3 present, 24 h.
Turning to `COP(=O)(OC)OC(Br)C(Cl)(Cl)Br` (centres unmarked) [Naled], the midpoint of cytotoxicity, the CC50 at 24 h, lay at 49.1 µM.

The same series, now with this note: rat, gh3-tre-luc cells, AC50 (uM) modified / 1000, Tox21_110001=Tox21_302279; viability, 1 nM T3 present, 24 h.
Turning to `O=C(O)c1ccccc1C(=O)Nc1cccc2ccccc12` [Naptalam], the CC50 at 24 h was greater than 90 µM.

The same series, now with this note: rat, gh3-tre-luc cells, AC50 (uM) modified / 1000, Tox21_110001=Tox21_302560; viability, 1 nM T3 present, 24 h.
Turning to `Nc1ccccc1C(=O)Oc1ccc2ccccc2c1` [Naphthalen-2-yl 2-aminobenzoate], the CC50 at 24 h was greater than 90 µM.

The series is the same for the next values; noted with them: rat, gh3-tre-luc cells, AC50 (uM) modified / 1000, Tox21_110001=Tox21_302867; viability, 1 nM T3 present, 24 h.
`O=NN1CCOCC1` [N-Nitrosomorpholine] registered a CC50 at 24 h greater than 90 µM.

The series is the same for the next values; noted with them: rat, gh3-tre-luc cells, AC50 (uM) modified / 1000, Tox21_110001=Tox21_302913; viability, 1 nM T3 present, 24 h.
With `O=NN1CCCC1` [N-Nitrosopyrrolidine], the cytotoxic concentration (CC50) at 24 h is greater than 90 µM.
